Assay results taken from patent publication US6534522B2, “Subtype-selective NMDA receptor ligands and the use thereof” (Warner-Lambert Company, priority 1995, dated 2003).
pIC50: −log10 of the molar value. Counter-ions that a name gives are not always drawn. Like-named read-outs stand apart in the source and are kept apart here.

Key:
NR1A/2C NMDA receptor = NR1A/2C NMDA receptor (Rattus norvegicus, UniProt P35439+Q00961); experiment: Xenopus oocyte expression system, two-electrode voltage clamp, NR1A/2C; assay type: cell-based
NR1A/2C NMDA receptor, sequence (Q00961 20-1237, other chains not shown): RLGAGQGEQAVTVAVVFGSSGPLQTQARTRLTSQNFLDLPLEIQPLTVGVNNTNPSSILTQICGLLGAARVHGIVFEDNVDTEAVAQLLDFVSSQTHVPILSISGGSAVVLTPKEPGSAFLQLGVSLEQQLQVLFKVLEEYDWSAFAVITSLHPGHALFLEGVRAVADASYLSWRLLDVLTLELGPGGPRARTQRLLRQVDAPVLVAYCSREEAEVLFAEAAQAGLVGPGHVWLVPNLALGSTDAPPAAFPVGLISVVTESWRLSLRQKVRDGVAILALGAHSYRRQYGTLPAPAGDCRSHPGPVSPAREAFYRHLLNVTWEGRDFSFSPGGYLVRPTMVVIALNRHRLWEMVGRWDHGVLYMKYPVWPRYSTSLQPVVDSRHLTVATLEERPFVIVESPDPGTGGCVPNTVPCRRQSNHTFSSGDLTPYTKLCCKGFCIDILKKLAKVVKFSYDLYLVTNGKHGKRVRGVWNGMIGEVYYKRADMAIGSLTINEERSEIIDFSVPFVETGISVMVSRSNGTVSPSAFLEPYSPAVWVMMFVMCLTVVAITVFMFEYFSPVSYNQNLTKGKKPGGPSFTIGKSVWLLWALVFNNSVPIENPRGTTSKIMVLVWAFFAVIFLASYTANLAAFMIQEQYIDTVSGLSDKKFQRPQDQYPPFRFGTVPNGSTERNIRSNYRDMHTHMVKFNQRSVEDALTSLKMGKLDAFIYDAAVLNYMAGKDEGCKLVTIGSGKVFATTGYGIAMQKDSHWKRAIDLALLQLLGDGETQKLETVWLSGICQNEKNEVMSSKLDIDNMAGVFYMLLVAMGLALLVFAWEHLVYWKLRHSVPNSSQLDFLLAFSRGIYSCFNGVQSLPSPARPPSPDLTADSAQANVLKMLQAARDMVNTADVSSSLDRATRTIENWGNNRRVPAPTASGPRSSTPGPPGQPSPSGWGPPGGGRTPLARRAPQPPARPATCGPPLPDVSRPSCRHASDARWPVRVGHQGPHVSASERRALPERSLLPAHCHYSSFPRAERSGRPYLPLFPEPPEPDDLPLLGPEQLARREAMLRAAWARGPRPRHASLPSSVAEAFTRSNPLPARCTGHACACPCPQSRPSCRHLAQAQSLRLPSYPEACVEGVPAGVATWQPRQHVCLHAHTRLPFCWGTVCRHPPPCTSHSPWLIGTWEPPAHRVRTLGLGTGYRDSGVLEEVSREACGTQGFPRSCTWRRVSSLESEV
Source text: (§1) Electrophysiological assays may be utilized to characterize the actions of potential subtype-selective ligands at NMDA receptors expressed in Xenopus oocytes. The ligand may be assayed at the different subunit combinations of cloned rat NMDA receptors corresponding to the four putative NMDA receptor subtypes (Moriyoshi et al., Nature (Lond.) 354:31-37 (1991); Monyer et al., Science (Washington, D.C.) 256:1217-1221 (1992); Kutsuwada et al., Nature (Lond.) 358:36-41 (1992); Sugihara et al., Biochem. Biophys. Res. Comm. 185:826-832 (1992)).
(§2) Using fixed saturating concentrations of agonists (glutamate 100 μM, glycine 1-10 μM depending on subunit combination), the inhibitory potency of a putative subtype-selective ligand may be assayed at the NMDA receptors assembled from NR1A/2A, NR1A/2B, NR1A/2C and NR1A/2D subunit combinations.
(§3) The Xenopus oocyte expression system. Mature female Xenopus laevis were anaesthetized (20-40 min) using 0.15% 3-aminobenzoic acid ethyl ester (MS-222) and 2-4 ovarian lobes were surgically removed. Oocytes at developmental stages IV-VI (Dumont, J. N., J. Morphol. 136:153-180 (1972)), were dissected from the ovary still surrounded by enveloping ovarian tissues. Follicle-enclosed oocytes were micro-injected with 1:1 mixtures of cRNA:NR1A+NR2A, 2B, 2C or 2D; injecting ˜2, 5, or 20 ng of RNA encoding each receptor subunit. NR1A encoding cRNA was injected alone at ˜20 ng. Oocytes were stored in Barth's medium containing (in mM): NaCl, 88; KCl, 1; CaCl2, 0.41; Ca(NO3)2, 0.33; MgSO4, 0.82; NaHCO3, 2.4; HEPES 5; pH 7.4, with 0.1 mg/mL gentamycin sulphate. While oocytes were still surrounded by enveloping ovarian tissues the Barth's medium was supplemented with 0.1% bovine serum. Oocytes were defolliculated 1-2 days following injections by treatment with collagenase (0.5 mg/mL Sigma Type I for 0.5-1 hr) (Miledi and Woodward, J. Physiol. (Lond.) 416:601-621 (1989)) and subsequently stored in serum-free medium.
(§4) Electrical recordings were made using a conventional two-electrode voltage clamp (Dagan TEV-200) over periods ranging between 3-21 days following injection. Oocytes were placed in a 0.1 mL recording chamber continuously perfused (5-15 mL min^−1) with frog Ringer's solution containing (in mM): NaCl, 115; KCl, 2; CaCl2, 1.8; HEPES, 5; pH 7.4. Drugs were applied by bath perfusion. When using the more rapid flow rates, half-times for mid-chamber solution changes were between 2-3 sec, however, exchange rates for drug solutions at the oocyte surface (i.e. beneath the vitelline envelope and among the tangles of microvilli) were probably considerably longer (Woodward et al., Mol. Pharmacol. 41:89-103 (1992)). Zero-Ca^2+/Ba^2+ Ringer had the composition (in mM): NaCl, 115; KCl, 2; BaCl2, 1.8; HEPES, 5; pH 7.4. Intraoocyte injections were made by pneumatic pressure-pulse ejection from micropipettes (Miledi and Parker, J. Physiol. (Lond.) 357:173-183 (1984)). Injection solutions of EGTA (40-400 mM) and BAPTA (50-500 mM) were made up in H2O, pH adjusted to 7.4 with KOH or HCl, and filtered to minimize plugging (Acrodisc-13, […]). Pressure was set between 200-400 kPa. The volume of injections was regulated by adjusting the time of pulses (0.1-1 sec) and was estimated by measuring the diameters of ejected droplets.
(§5) Concentration-inhibition curves were fit with equation 2.
(§6) I/Icontrol=1/(1+([antagonist]/10^−pIC50)^n) Eq. 2
(§7) in which Icontrol is the current evoked by agonists alone, pIC50=−log IC50, […] is the concentration of antagonist that produces half maximal inhibition, and n is the slope factor. For incomplete curves analysis by fitting was unreliable and IC50 values were calculated by simple regression over linear portions of the curves (Origin: Microcal Software).
(§8) Drugs were initially dissolved at concentrations of 10-100 mM in DMSO. Dilutions were then made to generate a series of DMSO stock solutions over the range 10 μM to 100 mM. Working solutions were made by 1000-3000 fold dilution of stocks into Ringer. […]

NR1A/2B NMDA receptor = NR1A/2B NMDA receptor (Rattus norvegicus, UniProt P35439+Q00960); experiment: Xenopus oocyte expression system, two-electrode voltage clamp, NR1A/2B; assay type: cell-based
NR1A/2B NMDA receptor, sequence (Q00960 27-1482, other chains not shown): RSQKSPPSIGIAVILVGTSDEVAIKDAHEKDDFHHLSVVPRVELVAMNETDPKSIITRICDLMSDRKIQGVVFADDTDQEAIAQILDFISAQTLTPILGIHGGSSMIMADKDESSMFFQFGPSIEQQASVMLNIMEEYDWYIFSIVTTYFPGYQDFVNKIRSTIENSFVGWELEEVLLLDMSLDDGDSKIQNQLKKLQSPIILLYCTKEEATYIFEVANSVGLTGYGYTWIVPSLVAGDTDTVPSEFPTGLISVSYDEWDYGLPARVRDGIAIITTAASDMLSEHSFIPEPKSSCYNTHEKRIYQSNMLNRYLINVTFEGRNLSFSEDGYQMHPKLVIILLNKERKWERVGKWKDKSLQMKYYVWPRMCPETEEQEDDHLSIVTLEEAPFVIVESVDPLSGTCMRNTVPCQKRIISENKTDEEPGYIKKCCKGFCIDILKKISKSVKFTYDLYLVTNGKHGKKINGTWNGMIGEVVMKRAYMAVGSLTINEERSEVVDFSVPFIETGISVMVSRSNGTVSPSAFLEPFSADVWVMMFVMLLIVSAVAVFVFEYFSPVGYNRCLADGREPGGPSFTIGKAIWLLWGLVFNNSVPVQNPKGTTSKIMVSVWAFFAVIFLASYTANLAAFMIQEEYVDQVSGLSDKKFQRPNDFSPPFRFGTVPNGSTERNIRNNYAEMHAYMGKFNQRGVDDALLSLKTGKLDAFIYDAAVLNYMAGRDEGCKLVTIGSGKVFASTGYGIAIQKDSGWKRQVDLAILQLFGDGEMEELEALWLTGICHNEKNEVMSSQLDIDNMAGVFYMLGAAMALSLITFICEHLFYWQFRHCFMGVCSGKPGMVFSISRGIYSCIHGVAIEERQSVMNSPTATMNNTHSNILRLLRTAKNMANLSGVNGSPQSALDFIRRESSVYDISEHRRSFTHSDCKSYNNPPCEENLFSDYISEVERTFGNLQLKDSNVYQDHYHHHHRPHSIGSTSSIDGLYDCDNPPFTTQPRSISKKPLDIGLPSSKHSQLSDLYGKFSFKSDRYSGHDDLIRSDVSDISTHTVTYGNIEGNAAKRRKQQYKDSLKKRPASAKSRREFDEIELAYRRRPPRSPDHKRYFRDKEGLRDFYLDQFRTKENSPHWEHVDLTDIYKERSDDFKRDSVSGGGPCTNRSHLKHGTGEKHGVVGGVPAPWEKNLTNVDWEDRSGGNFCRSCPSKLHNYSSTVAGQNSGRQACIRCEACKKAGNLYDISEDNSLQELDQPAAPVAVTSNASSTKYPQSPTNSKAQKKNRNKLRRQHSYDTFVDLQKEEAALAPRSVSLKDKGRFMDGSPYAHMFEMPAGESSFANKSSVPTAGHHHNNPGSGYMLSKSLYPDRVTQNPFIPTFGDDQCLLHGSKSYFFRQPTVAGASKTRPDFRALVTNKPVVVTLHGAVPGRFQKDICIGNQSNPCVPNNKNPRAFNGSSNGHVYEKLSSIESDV
Source text: as §1, §2, §3, §4, §5, §6, §7, §8

[1] = system: Maximal Electroshock-induced Seizures; experiment: Maximal electroshock-induced seizures; assay type: in vivo, mice; details: Mus musculus, read-out: Mes. ED50
Protocol: Maximal Electroshock-induced Seizures. Seizures were induced by application of current (50 mA, 60 pulses/sec, 0.8 sec pulse width, 1 sec duration, d.c.) through saline-coated corneal electrodes using a Ugo Basile ECT device (Model 7801). […] A tonic seizure was defined as a hindlimb extension in excess of 90 degrees from the plane of the body. Results were treated in a quantal manner.

NR1A/2A NMDA receptor = NR1A/2A NMDA receptor (Rattus norvegicus, UniProt P35439+Q00959); experiment: Xenopus oocyte expression system, two-electrode voltage clamp, NR1A/2A; assay type: cell-based
NR1A/2A NMDA receptor, sequence (Q00959 20-1464 limits assumed, other chains not shown): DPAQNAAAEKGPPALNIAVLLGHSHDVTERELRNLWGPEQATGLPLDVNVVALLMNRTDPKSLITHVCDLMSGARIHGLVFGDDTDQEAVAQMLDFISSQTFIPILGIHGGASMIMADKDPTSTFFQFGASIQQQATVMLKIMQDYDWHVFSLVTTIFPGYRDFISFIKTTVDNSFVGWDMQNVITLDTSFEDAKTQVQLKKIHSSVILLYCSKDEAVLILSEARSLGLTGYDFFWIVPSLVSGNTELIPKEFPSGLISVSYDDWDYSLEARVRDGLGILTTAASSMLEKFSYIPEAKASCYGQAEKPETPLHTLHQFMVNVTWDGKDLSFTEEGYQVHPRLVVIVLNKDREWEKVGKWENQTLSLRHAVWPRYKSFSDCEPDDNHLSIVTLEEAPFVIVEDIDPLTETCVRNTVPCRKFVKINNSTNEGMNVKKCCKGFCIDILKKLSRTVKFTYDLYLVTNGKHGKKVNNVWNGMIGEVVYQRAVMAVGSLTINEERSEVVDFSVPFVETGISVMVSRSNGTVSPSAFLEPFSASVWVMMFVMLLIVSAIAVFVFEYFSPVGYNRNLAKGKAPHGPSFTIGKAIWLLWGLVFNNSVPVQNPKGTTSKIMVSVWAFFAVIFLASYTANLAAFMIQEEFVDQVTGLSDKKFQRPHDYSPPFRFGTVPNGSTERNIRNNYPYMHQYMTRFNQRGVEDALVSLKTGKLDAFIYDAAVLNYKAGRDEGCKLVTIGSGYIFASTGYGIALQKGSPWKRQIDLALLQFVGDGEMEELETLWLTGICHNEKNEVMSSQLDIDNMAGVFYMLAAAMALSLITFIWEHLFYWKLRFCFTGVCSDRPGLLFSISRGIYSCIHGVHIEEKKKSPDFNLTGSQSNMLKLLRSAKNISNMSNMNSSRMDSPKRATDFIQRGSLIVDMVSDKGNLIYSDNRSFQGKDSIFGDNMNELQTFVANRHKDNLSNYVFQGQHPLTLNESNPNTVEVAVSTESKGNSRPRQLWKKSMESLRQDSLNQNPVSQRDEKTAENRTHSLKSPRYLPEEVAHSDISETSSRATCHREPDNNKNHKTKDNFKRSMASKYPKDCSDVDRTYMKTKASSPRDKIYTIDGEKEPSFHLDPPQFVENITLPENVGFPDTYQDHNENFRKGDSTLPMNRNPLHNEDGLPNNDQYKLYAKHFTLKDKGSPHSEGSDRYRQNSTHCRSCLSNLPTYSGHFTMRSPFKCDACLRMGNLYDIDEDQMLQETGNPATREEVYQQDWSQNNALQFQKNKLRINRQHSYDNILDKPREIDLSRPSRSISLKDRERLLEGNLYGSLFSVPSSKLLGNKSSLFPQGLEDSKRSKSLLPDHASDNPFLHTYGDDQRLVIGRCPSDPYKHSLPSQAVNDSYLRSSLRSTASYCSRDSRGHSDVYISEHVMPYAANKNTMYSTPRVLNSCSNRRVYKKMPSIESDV
Source text: as §1, §2, §3, §4, §5, §6, §7, §8

[2] = cloned NR1A/2C subunits expressed in Xenopus oocytes, inhibition of agonist-evoked membrane current, read-out: 1A/2C IC50
[3] = cloned NR1A/2B subunits expressed in Xenopus oocytes, inhibition of agonist-evoked membrane current, read-out: 1A/2B IC50
[4] = cloned NR1A/2A subunits expressed in Xenopus oocytes, inhibition of agonist-evoked membrane current, read-out: 1A/2A IC50
[5] = mice, tonic hindlimb extensor response after corneal current 50 mA

melting point [°C]	SMILES	pIC50 (NR1A/2C NMDA receptor; [2])	pIC50 (NR1A/2B NMDA receptor; [3])	ED50 [1] [mg/kg]	pIC50 (NR1A/2A NMDA receptor; [4])	ED50 [1, 5] [mg/kg]	pIC50 (NR1A/2C NMDA receptor)	pIC50 (NR1A/2B NMDA receptor)	pIC50 (NR1A/2A NMDA receptor)
	OCCCN1CCC(Cc2ccccc2)CC1 [Ex. 83, 4-Benzyl-1-(3-hydroxypropyl)piperidine hydrobromide]	< 3.52	5.74	3.5	3.65				
	OCCCN1CCC(Cc2ccc(Cl)cc2)CC1 [Ex. 89, 4-(4-Chlorobenzyl)-1-(3-hydroxypropyl) piperidine hydrobromide]	< 4.00	6.52		3.82	5			
	CC(O)CCN1CCC(Cc2ccc(F)cc2)CC1 (stereo not shown) [Ex. 91, 4-(4-Fluorobenzyl)-1-(3-hydroxybutyl) piperidine hydrochloride]	< 3.52	5.60	6	3.64				
	COc1ccc(CC2CCN(CCCO)CC2)cc1 [Ex. 93, 1-(3-Hydroxypropyl)-4-(4-methoxybenzyl) piperidine hydrobromide]	< 3.52	5.05	8	< 3.52				
96 to 101	CC(O)CCN1CCC(Cc2ccc(Cl)cc2)CC1.Cl (stereo not shown) [Ex. 99, 4-(4-chlorobenzyl)-1-(3-hydroxybutyl) piperidine hydrochloride]	< 3.52	5.80		< 3.52	6			
134 to 136	Cc1ccc(CC2CCN(CCC(C)O)CC2)cc1.Cl (stereo not shown) [Ex. 104, 4-(4-methylbenzyl)-1-(3-hydroxy-butyl) piperidine hydrochloride]	< 3.52	6.10		3.96	2			

SMILES	melting point [°C]	pIC50 (NR1A/2C NMDA receptor; [2])	pIC50 (NR1A/2B NMDA receptor; [3])	ED50 [1] [mg/kg]	pIC50 (NR1A/2A NMDA receptor; [4])	ED50 [1, 5] [mg/kg]	pIC50 (NR1A/2C NMDA receptor)	pIC50 (NR1A/2B NMDA receptor)	pIC50 (NR1A/2A NMDA receptor)
CC(O)CCN1CCC(Cc2ccccc2)CC1.Cl (stereo not shown) [Ex. 100, 4-benzyl-1-(3-hydroxy-butyl) piperidine hydrochloride]	133 to 135			3.5			< 3.52	5.52	< 3.52
